Test results from a melting point compilation (Tetko et al.; mined from patent text by program, amines drawn as free bases though some values may be those of a salt).

melting point [°C] | SMILES
128 to 130 | Cc1cc(C(=O)c2ccc(F)c(C)c2)ccc1F
129 to 130 | Cc1c([N+](=O)[O-])ccc2[nH]cc(CCCO)c12
179 to 181 | CCNC(=O)[C@H](C)C[C@H](O)[C@H](CC1CCCCC1)NC(=O)[C@H](Cc1cscn1)NC(=O)OC(C)(C)C
154 to 155 | CCN1c2ncccc2C(OS(C)(=O)=O)Nc2c(C)cc(C)nc21 (configuration not stated)
121 to 122 | COc1ccc(CCNc2nccc(-c3cccc(NC(=O)CCCN4C=CC=NC4)c3)n2)cc1OC
138 to 139 | Cc1[nH]nc(Nc2ccccc2)c1C(=O)OC(C)C
219 to 221 | CC(C)c1nc2cc(COc3ccc(C=C4SC(=O)NC4=O)cc3)ccc2o1
83 to 84 | c1ccc2cc(CN3CCN(c4nccs4)CC3)ccc2c1
184 to 185 | CCCCOc1ncc(C(C)=O)cc1-c1nc2c(CC)n(CC3CC3)nc2c(=O)[nH]1
80.2 to 82.5 | CCCCCCCc1ccc([C@H]2CC[C@H](O)CC2)cc1
182 to 183 | Cc1ccc(N2C(=O)c3cc([N+](=O)[O-])cc([N+](=O)[O-])c3C2=O)cc1
292 to 294 | O=c1c2c(Cc3ccccc3C(F)(F)F)n[nH]c2c2cccnc2n1-c1ccccc1
189 to 196 | O=C(NCC12CC3CC(CC(C3)C1)C2)c1c(Cl)ccc2nc(N3CCC(C(=O)NO)CC3)ccc12
92 to 94 | CC(C)N(CCO)C(=O)c1noc2ccccc12
218 to 219 | COC(=O)c1ccc(COc2ccc3cc(-c4ccc(-c5ccccc5)n4-c4ccccc4)ccc3c2)cc1
199 to 202 | COC(=O)CSc1nc(N2CCN(c3ccccn3)CC2)ncc1[N+](=O)[O-]
102 to 115 | OC(CNC1CCc2ccccc2C1)COc1ccc2ccccc2c1 (configuration not stated)
194 to 195 | COc1cc2c(c(OC)c1OC)C(=O)c1c-2n(C)c(=O)c2ccccc12
167 to 170 | O=C(/C=C/c1c[nH]c2ccccc12)c1ccccc1
73 | FC(F)(F)c1ccc(-c2ccc(CCl)cn2)cc1
114 to 115 | COc1ccc(NC(=O)c2ccc(Br)s2)cc1N1CCN(C)CC1
98 to 101 | CCOC(=O)c1ncn(-c2nc(C)cs2)c1Cl
233 to 235 | NC(=O)c1c(N)oc2c(-c3ccccc3)cccc2c1=O
185 to 186 | CCC(=O)Nc1cccc(NC(=O)C2CC2)c1
64 to 65 | Cc1ncsc1C(=O)CCCSc1nnnn1C

melting point [°C] | SMILES
259 to 261 | O=C(O)c1ccc(-c2ccc3oc([N+](=O)[O-])c(-c4ccccc4)c3c2)cc1
131 to 132 | CC1(C)CC(=C(c2ccccc2)c2ccc(OCCO)cc2)CC(C)(C)C1
162 to 164 | O=C(NO)c1ccc(CNC(=O)c2[nH]c(-c3ccoc3)cc2-c2ccc(F)cc2)cc1
93 to 95 | CON=C(C(=O)OC)c1ccc(O)c([N+](=O)[O-])c1
183 to 186 | O=S(=O)(Nc1cccc(Br)c1)c1cc(S(=O)(=O)Nc2cccc(Br)c2)c2ccccc2c1
131 to 134 | CC(C)OC(=O)C1(F)C(=O)NC(=O)NC1O/N=C\c1ccco1 (configuration not stated)
233 to 236 | COCCn1nc2c(N)nc3ncccc3c2c1CC(C)(C)O
> 300 | CC1COc2c(F)c(Cl)cc3c(=O)c(C(=O)O)cn1c23 (configuration not stated)
104 | CCCCCCCCN1C(=O)c2c(Br)sc(Br)c2C1=O
40 | CCCCc1ccc(CCc2ccc(-c3ccc(F)cc3F)cc2)cc1
75 to 76 | OCCCc1oc(-n2cccn2)nc1-c1ccc(Cl)cc1
222 to 223 | CCCC(=O)NCCCn1c(C)nc2c(N)nc3ccccc3c21
203 to 205 | O=Cc1ccc(-c2cc(O)ccc2O)cc1
104 | CC=CC(c1ccc2c(c1)nnn2C)n1ccnc1 (configuration not stated)
94 to 100 | CN(C)C=C1C(=O)CCc2c1cnn2C
150 to 157 | O=Cc1ccc(NS(=O)(=O)c2ccccc2)cc1O
257 to 258 | O=C1Nc2ccccc2C2=NC(CN3CCN(c4ccccc4)CC3)CN12 (configuration not stated)
108 | COc1cc(C=Cc2ccccc2)cc(OC)c1OC
> 230 | CSc1nn2c(N)cc(N3CCN(C)CC3)nc2c1S(=O)(=O)c1ccccc1
219 to 221 | COc1cc(Cc2ccc3nc(N)nc(N)c3c2)cc(OC)c1OC
110 to 112 | CCC([O-])=C(C(=O)OCc1ccc([N+](=O)[O-])cc1)N1C(=O)CC1[N+](CC)(CC)CC (configuration not stated)
106 to 109 | CS(=O)(=O)NCc1ccc2[nH]cc(CC#N)c2c1
150 | C=CCn1c2c(c3cc(OCc4ccc5ccccc5n4)ccc31)CCCC2CC(=O)O (configuration not stated)
249 | Cc1nc(C)c(C(=O)Nc2cccc(Oc3ccc4nc(NC(=O)C5CC5)cn4n3)c2)s1
104 to 105 | COc1ccc(C2=NN(CCCCCCNC(=O)c3ccccc3C(N)=O)C(=O)[C@H]3CC=CC[C@@H]23)cc1OC (relative stereo)

melting point [°C] | SMILES
143 to 144 | COc1cc(NC(=O)C(C)(C)C)ccc1C(=O)N(C)C
253 to 255 | O=c1[nH]c(=S)[nH]c(-c2ccccc2)c1Cc1c(O)ccc2ccccc12
162 | CCOC(=O)c1ccc(OCC2=CCN(c3ccc(Cl)nn3)CC2)cc1
158 to 160 | COC(=O)C(=CNC1CC1)C(=O)C=Cc1ccc2c(c1)OCO2
131 to 133 | O=S(=O)(NCCCCOc1ccc(-n2ccnc2)cc1)c1cccc2cccnc12
192 to 193 | COCOc1ccc(Cl)cc1-c1cc(-c2cccc([N+](=O)[O-])c2)c(C#N)c(N)n1
204 | CC(C)(C)c1cc(C2CC(=O)N(c3ccccc3)C2=O)cc(C(C)(C)C)c1O (configuration not stated)
118 | O=S1(=O)N(CCN2CCN(c3ccc(F)cc3)CC2)c2cccc3c2N1CCC3
172 to 175 | CS(=O)(=O)c1ccc(-c2nc3cc(C4CCN(C(=O)OCc5ccccc5)CC4)ccc3o2)c(F)c1
167 to 169 | CC1Cc2cccc(S(N)(=O)=O)c2S1(=O)=O (configuration not stated)
70 to 72 | c1ccc(CNc2cc(N3CCCC3)nc(N3CCCC3)n2)cc1
135 to 136 | COc1ccc(O)c(NS(C)(=O)=O)c1
204 | CCC1=NN(CCO[Si](C)(C)C(C)(C)C)C(=O)C1Oc1cc(C#N)cc(C#N)c1 (configuration not stated)
218 to 222 | O=C(O)c1ccc(N2CCOCC2)c(NC(=O)C(CS)Cc2ccccc2)c1 (configuration not stated)
66 | Ic1ccc(OC2CCCCO2)cc1 (configuration not stated)
192 to 194 | NC(=O)CCCCCCCCCCCNC(N)=NC(=O)c1nc(Cl)c(N)nc1N
193 | CCOC(=O)c1cc2nc(C)n(Cc3ccccc3)c2[nH]1
146 | CCOC(=O)CN(Cc1ccccc1Cl)c1ccc(C(O)(C(F)(F)F)C(F)(F)F)cc1
55 to 56 | Nc1ccccc1OC1CCCCC1
248 to 250 | Oc1ccc(-c2ncc3ncc(-c4ccsc4)cc3n2)cc1
93 to 95 | CCC(Oc1ccc(Cl)c(C(F)(F)F)c1)C(=O)NCc1ccccc1 (configuration not stated)
138 to 140 | N#Cc1c(Cl)cccc1C=O
234 to 235 | O=C1NCCc2c(-c3ccc(F)c(Cl)c3)[nH]c3cccc1c23
248 to 250 | O=C(O)CSc1ccc(-n2cc(C3c4ccccc4C=Cc4ccccc43)c(=S)[nH]c2=O)nn1
41 to 43 | COc1ccc(CC(=O)CCCCCBr)cc1

melting point [°C] | SMILES
138 | CSCc1nc(C)cc(O)n1
188 | CC(=O)c1cnc(N)c(Cl)c1
197 to 200 | OCC(O)COc1ccc(-c2nc(-c3cccs3)c[nH]2)cc1 (configuration not stated)
155 to 157 | Cc1ccc(-n2c(N)nc3ccccc32)cc1-c1ccco1
115 | OCC12CO[C@@H](c3ccc(F)cc3)N1[C@H](c1ccc(F)cc1)OC2
> 260 | O=C1c2ccccc2C(=O)c2oc(-c3ccc(Cl)cc3)nc21
100 to 104 | CCOC(=O)/C=C(C)/C(F)=C/C=C(C)/C=C/c1c(C)cc(C)c(Cl)c1C
205 | O=C(Nc1ccc(F)cc1)NC1CC1
164 to 166 | O=C(/C=C/C=C/c1ccc(Cl)cc1)NCCCC(=O)NO
177 to 179 | O=C1c2cccc3cccc(c23)C(=O)N1CCN1CCC(O)(c2ccccc2)CC1
249 to 253 | O=C(Nc1ncc(Br)cn1)c1ccccc1SSc1ccccc1C(=O)Nc1ncc(Br)cn1
213 to 214 | Cc1cc(OCC(O)CNC(C)(C)C)c2cc(C(N)=O)[nH]c2c1 (configuration not stated)
144 to 145 | CC(C)SC(Cc1ccc(OCCN(C)c2nc3ccccc3o2)cc1)C(=O)O (configuration not stated)
143 | Nc1nc(Nc2cccnc2)sc1C(=O)c1ccc(OC(F)F)cc1
265 to 267 | N=C(NO)c1nc2cnc3ccc(Cl)cc3c2n1-c1ccccc1Cl
89 to 91 | CC(C)(C)OC(=O)NCc1ccc(CC(=O)O)cc1
172 to 173 | COc1ccc(COC(=O)C2=C3[C@@H](C)[C@H](C)[C@@H]3S[C@@H]3[C@H](NC(=O)Cc4ccccc4)C(=O)N23)cc1
123 | CC12CCC(C1)C1(C)Oc3ccc(C(O)COc4ccc(C(=O)O)cc4)cc3C21C (configuration not stated)
187 to 188 | CSc1ccc(C=C2C(C)=C(CC(=O)O)c3cc(F)ccc32)cc1
110 to 111 | CC(C)(C)OC(=O)NC(CNC(=O)c1ccccc1)C(=O)O (configuration not stated)
202 | COc1ccc(/C=C/c2ccc(Cl)cc2[N+](=O)[O-])c([N+](=O)[O-])c1
138 to 140 | O=C(O)C(O)(CC1CCCCC1)c1ccccc1 (configuration not stated)
171 to 174 | CS(=O)(=O)c1ccc(-c2sc(-c3ccccc3Cl)nc2-c2cccs2)cc1

SMILES | melting point [°C]
O=C(OCc1ccccc1)C1(Nc2ccccc2)CCN(CCc2ccccc2)CC1 | 76.7
COC(=O)C(O)(c1ccc(OC)cc1)c1ccc(OC)cc1 | 110
CN1CN(C)C(=N[N+](=O)[O-])N(Cc2ccc(Cl)nc2)C1 | 116 to 117
COc1ccc(Cl)c(CBr)c1 | 51 to 52
